Article PMC12441774, “Proteolytic stabilization of a spider venom peptide results in an orally active bioinsecticide” (Pest Management Science, 2025)
Bridges are numbered along the chain shown (N, C = ends). Where no end group is shown, it is not given here.

How the values were obtained:
[1] = Gut enzyme digestion, T. ni gut extract; type: in vitro ADME, Trichoplusia ni; conditions: pH 8.8; extract diluted ten-fold, single exponential decay fit, HPLC; read-out: Degradation half-life in T. ni gut extract
Protocol: (§1) Larvae of H. zea, Spodoptera frugiperda Smith and Abbot, 1797, and Trichoplusia ni Hubner, 1802 were purchased from Benzon Research and reared to fifth instar on general purpose lepidopteran diet. Manduca sexta L. were purchased from Carolina Biological Supply (Burlington, NC) and reared to fifth instar on the supplied diet. Larvae were anesthetized on ice for 30 min, pinned on a dissection plate, and opened laterally with microdissection scissors. The foregut, midgut and hindgut were excised and washed using sterile water to remove any excess hemolymph and then transferred into a chilled 2‐mL microcentrifuge tube. The extracts were spun in a microcentrifuge at 10000 g to pellet the solids. The liquid fractions were carefully removed, sterile filtered, and stored at −80°C for future use.
(§2) For gut enzyme digestion studies, gut extract was diluted 10× with the dilution buffer (30 mM Tris–HCl, pH 8.8) and 0.5–1 mg mL^−1 of Ta1b. Samples were taken from the digestion mixture at defined timepoints and mixed with a 1:6 ratio of stop buffer (Tris–HCl pH 1–2) to halt further digest of the peptide. Samples were sterile filtered and analyzed by HPLC to determine peptide integrity and concentration.

Musca domestica = assay: Insecticidal activity by injection into adult house flies; type: in vivo
Protocol: Adult house flies (Musca domestica L.) were immobilized with CO2 gas and those with an average weight of 12–18 mg were selected for injection. Purified solutions of Ta1b and variants were diluted in water and injected into the dorsal thorax with a 1‐cc syringe and 30‐gauge needle using a hand microapplicator (Burkard, Rickmansworth, England). Each adult was injected with 0.5 μL of solution with 10 flies per treatment in at least triplicate. Water was used as a negative control. Flies were placed into a container with moist filter paper and scored for mortality 24 h post‐injection. Ten non‐injected flies were placed in a container to assess CO2 mortality. Response curves were fitted with a four‐parameter sigmoidal function (GraphPad Prism, Boston, MA) to determine LD50 values.
(§3) To compare the potency of Ta1b, we also injected the following active ingredients into M. domestica and H. zea: GS‐ω/κ (Spear, Vestaron), spinosad (Monterey Garden Insect Spray, Monterey), thiamethoxam (Optigard® Flex, Syngenta), and chlorantraniliprole (ALTACOR®, FMC).

[2] = Circular dichroism thermal denaturation; type: physicochemical; conditions: CD ellipticity at 220 nm, 0.4–0.6 mg mL^−1 peptide in 10 mM sodium phosphate pH 7.0, 2°C min^−1 up to 95°C, Boltzmann sigmoidal fit, 3–4 replicates
Protocol: Thermal denaturation profiles were collected on a Jasco‐J1500 CD spectrophotometer in a 0.2‐cm cuvette at a peptide concentration of 0.4–0.6 mg mL^−1 in 10 mM sodium phosphate, pH 7.0. Ellipticity was monitored at 220 nm every 1°C up to 95°C at a rate of 2°C min^−1. Denaturation curves were fitted with a Boltzmann sigmoidal function (GraphPad Prism) to determine the melting point (T m) for a single replicate. 3–4 replicates were run and the calculated T m values of each variant peptide was tested for a statistically significant difference relative to the rTa1b peptide or Ta1b‐QA commercial peptide, as appropriate, using an unpaired, two‐tailed, heteroscedastic student t's test (Microsoft Excel, Redmond, WA).

[3] = Protease stability, commercial trypsin digestion; type: in vitro ADME, bovine; conditions: bovine trypsin 1 mg mL^−1 in 50 mM Tris–HCl pH 8.8, 100 mM NaCl; 5 μL added to 200 μL of 10.7 mg mL^−1 peptide; room temperature; HPLC; read-out: Degradation half life, Trypsin
Protocol: (§4) For commercial enzyme digestion studies, bovine trypsin (Sigma‐Aldrich, St. Louis, MO) was prepared at a concentration of 1 mg mL^−1 in 50 mM Tris–HCl pH 8.8, 100 mM NaCl. Bovine chymotrypsin (Sigma‐Aldrich) was prepared at a concentration of 1 mg ml^−1 in 50 mM MES pH 6.0, 100 mM NaCl. For each digestion condition, 5 μL of trypsin or chymotrypsin solution were added to 200 μL of 10.7 mg mL^−1 peptide and incubated at room temperature. Samples were taken at defined timepoints, sterile filtered, and analyzed immediately by HPLC.

bovine trypsin = molecular target: T1, bovine trypsin (Bos taurus, UniProt P00760); assay: Protease stability, commercial trypsin digestion; type: in vitro ADME; conditions: pH 8.8, room temperature, HPLC chromatogram
T1 construct: purchased Sigma-Aldrich
T1 sequence (P00760 24-246): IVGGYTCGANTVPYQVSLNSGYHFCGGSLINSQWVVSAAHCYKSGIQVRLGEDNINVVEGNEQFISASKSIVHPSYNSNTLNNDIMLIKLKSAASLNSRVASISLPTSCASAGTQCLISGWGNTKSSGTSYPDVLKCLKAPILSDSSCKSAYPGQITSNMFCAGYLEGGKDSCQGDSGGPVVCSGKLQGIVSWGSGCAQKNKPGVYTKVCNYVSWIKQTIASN
Protocol: as §4

[4] = Gut enzyme digestion, M. sexta gut extract; type: in vitro ADME, Manduca sexta; conditions: M. sexta fifth instar gut extract diluted 10× in 30 mM Tris–HCl pH 8.8, 0.5–1 mg mL^−1 peptide, HPLC, single exponential decay fit
Protocol: as §1, §2

Helicoverpa zea = assay: Insecticidal activity by injection into fourth instar larvae; type: in vivo
Protocol: Helicoverpa zea (Boddie, 1850) larvae were reared from eggs (Benzon, Carlisle, PA) to fourth instar on general purpose lepidopteran diet (F9772, Frontier Agricultural Sciences, Newark, DE). Pre‐weighed larvae immobilized on ice were injected into their penultimate proleg as described for M. domestica with 1 μL solution and eight larvae per treatment in at least triplicate. After injection, larvae were placed in a well of a 32‐well tray filled with 5 mL lepidopteran diet. The trays were then placed in an incubator at 28° C with 16:8 h light: dark cycle and evaluated 24 h after injection for mortality.
as §3

[5] = Gut enzyme digestion, S. frugiperda gut extract; type: in vitro ADME, Spodoptera frugiperda; conditions: pH 8.8; extract diluted ten-fold, single exponential decay fit, HPLC; read-out: Degradation half-life in S. frugiperda gut extract
Protocol: as §1, §2

H. zea neonates = assay: Insecticidal activity by foliar spray (lettuce leaf disk feeding); type: in vivo, Helicoverpa zea
Protocol: Organic romaine lettuce was cut into 30‐mm diameter disks and sterilized with a 140‐ppm bleach solution followed by a triple rinse in water. The lettuce disks were then sprayed on either side using a Potter Tower Sprayer (Burkard, Rickmansworth, England) with insecticidal solutions, allowing them to dry between sprays. Once fully sprayed and dried, disks were placed into an arena, which was a 32‐well rearing tray containing 5 mL of 1% w/v agar. One leaf disk was placed in each well and a single neonate H. zea was applied to each of the 12 leaf discs per treatment with four experimental replicates per treatment. The trays were then placed in a 28° C incubator with a 16:8 h light: dark cycle. Mortality was evaluated 4 days after application.

[6] = Gut enzyme digestion, H. zea gut extract; type: in vitro ADME, Helicoverpa zea; conditions: pH 8.8; extract diluted ten-fold, single exponential decay fit, HPLC; read-out: Degradation half-life in H. zea gut extract
Protocol: as §1, §2

[7] = Gut enzyme digestion, stated jointly for three lepidopteran gut extracts; type: in vitro ADME, H. zea, S. frugiperda, T. ni; conditions: 10‐fold diluted gut extract, single exponential decay, followed up to 21 h
Protocol: as §1, §2

[8] = injection, Supplementary Figure 4
[9] = injection, Supplementary Table 1

With “EPDEICRARMTNKEFTYKSNVCNNCGDQVAACEAECFRNDVYTACHEAQKG (disulfide 6-36, 22-32, 25-45) [Ta1b]” the half-life [1] was 38.1 min, the “Insecticidal LD50, injection, M. domestica (95% CI)” value (Musca domestica; adult house flies 12–18 mg, 0.5 μL into dorsal thorax, mortality 24 h post‐injection, 10 flies per treatment, at least triplicate, four‐parameter sigmoidal fit) was 0.27 (0.23–0.32) nmol g^−1 and the “LD50 against house flies” value (Musca domestica; [8]) was 310 pmol/g. The “Housefly LD50 (95%CI)” value (Musca domestica; [9]) was 0.27 (0.23-0.32) pmol/g, the “Melting temperature Tm (± SEM)” value [2] was 73.7 ± 0.4 °C and the half-life at 10.4 mg mL^-1 [3] was 288 min. The “Digestion by bovine trypsin (HPLC)” value (bovine trypsin) was “resulted in digestion of the peptide”, the “Degradation half life, Gut extract” value [4] was “under 2 min” and the half-life ([4]; read-out: Degradation half life, Gut extract) was 1.4 min. The “Insecticidal LD50, injection, H. zea (95% CI)” value (Helicoverpa zea; fourth instar larvae, 1 μL into penultimate proleg, mortality 24 h after injection, eight larvae per treatment, at least triplicate) was 2.4 (1.7–3.4) nmol g^−1, the “LD50 against H. zea” value (Helicoverpa zea; [8]) was 2560 pmol/g and the “H. zea LD50 (95%CI)” value (Helicoverpa zea; [9]) was 2.4 (1.7-3.4) pmol/g. For the same sequence, the half-life [5] was 26.4 min, the “Day 4 mortality of H. zea on treated lettuce leaves, peptide alone” value (H. zea neonates; 100 μg cm^−2, neonates, compared to untreated) was “no activity” and the “Day 4 mortality of H. zea on treated lettuce leaves, peptide in combination with Btk” value (H. zea neonates; 100 μg cm^−2 peptide with sublethal Btk 0.17 μg cm^−2, neonates) was “no activity”. For the same sequence, the half-life [6] was 118 min and the “Degradation half‐lives in gut extracts from H. zea, S. frugiperda, and T. ni” value [7] was 0.5 to 2 h.
